In one data set the test system is HUVEC cells. The following applies: Barabino et al, Blood 1999; cited from earlier work.
In the next data set the target is T1, immobilized P-selectin (Homo sapiens, UniProt P16109).
T1 sequence (P16109 42-830): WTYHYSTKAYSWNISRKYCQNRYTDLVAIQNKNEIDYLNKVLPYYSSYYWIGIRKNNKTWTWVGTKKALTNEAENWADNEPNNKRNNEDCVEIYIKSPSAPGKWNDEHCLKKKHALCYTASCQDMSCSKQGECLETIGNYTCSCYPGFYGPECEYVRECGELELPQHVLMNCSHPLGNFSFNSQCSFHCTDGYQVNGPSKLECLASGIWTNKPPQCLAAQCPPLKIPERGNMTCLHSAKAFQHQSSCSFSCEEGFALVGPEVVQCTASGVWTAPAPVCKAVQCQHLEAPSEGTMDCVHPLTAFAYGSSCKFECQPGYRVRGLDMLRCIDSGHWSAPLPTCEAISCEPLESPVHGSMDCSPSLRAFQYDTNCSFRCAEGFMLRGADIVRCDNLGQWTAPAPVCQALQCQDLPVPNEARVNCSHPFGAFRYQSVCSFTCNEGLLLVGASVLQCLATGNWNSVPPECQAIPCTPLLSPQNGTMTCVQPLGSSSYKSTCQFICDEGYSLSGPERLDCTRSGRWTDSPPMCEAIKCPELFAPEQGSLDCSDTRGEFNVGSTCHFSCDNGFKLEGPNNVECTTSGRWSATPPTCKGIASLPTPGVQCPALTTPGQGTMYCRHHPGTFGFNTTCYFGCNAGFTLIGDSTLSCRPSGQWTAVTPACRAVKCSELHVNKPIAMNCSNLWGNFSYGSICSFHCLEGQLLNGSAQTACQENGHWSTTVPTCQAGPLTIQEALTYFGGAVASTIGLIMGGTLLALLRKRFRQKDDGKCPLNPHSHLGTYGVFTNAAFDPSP
The following applies: Matsui, Blood 2002; cited from earlier work.

Another data set has as its system human endothelial cells. The following applies: Gupta et al; cited from earlier work.
In data set [1] the test system is patients with sickle cell crises. Particulars: four patients, 12-month self-administered intravenous minidose heparin vs 12 months off heparin; cited from earlier work.
The next data set concerns Human SCD patients. The data set can be described thus: Computer-assisted intravital microscopy (CAIM) of conjunctival microcirculation, Example 1. The class given is in vivo. Particulars: SCD patients hospitalized for VOC, high dose, relative to placebo group. From the text:
Human SCD patients are enrolled to be studied by a non-invasive videotape of the conjunctival microcirculation. Recently, microvascular characteristics in SCD patients have been quantified using computer-assisted intravital microscopy (CAIM), a novel technology involving intravital video-microscopy coupled with imaging protocols, to study and analyze steady-state and vaso-occlusive crisis (VOC) microvascular characteristics in SCD (Cheung et al, Blood. 2002; 99:3999). During VOC, decreases in vascularity (“blanching”) occur as a result of vasoconstriction and diminished blood flow through the microvessels. […] The microvascular changes during VOC are transient and revert to steady-state values after crisis resolution. These specific reversals in VOC are used as the basis for this study to evaluate and quantify the effects of PPS on the microcirculation.
Because of the unique shape and form of conjunctival vessels, each vessel is easily identified and located to be re-studied. Each vessel serves as its own reference (control) to evaluate and quantify microvascular changes. […] CAIM is used to non-invasively videotape and longitudinally quantify the changes in venular diameter and red-cell velocity pre- and post-treatment of PPS, sulodexide or placebo at various time points post treatment.

Data set [2] relates to adhesion of RBC from sickle cell patients (ssRBC) to human umbilical vein endothelial cells (HUVEC). Kind of data set: Variable height flow chamber adhesion of ssRBC to endothelial cells, Example 4. The class given is cell-based. The following applies: HUVEC stimulated with thrombin or TNF-alpha, treated thirty minutes at 37° C., versus control preparations. As for the experimental part: The effects of PPS or sulodexide on sickle cell erythrocyte adhesion are evaluated by in vitro study according to procedures similar to those described in Telen et al. (Blood, 2004, 104:3774); Niihara et al (BMC Blood Disorders, 2005, 5:4); and Barabino et al (Blood, 1999, 93:1422-29). In brief, a variable height flow chamber is used to quantitate the effects of PPS on the adhesion of RBC from sickle cell patients (ssRBC) to endothelial cells. Human umbilical vein endothelial cells (HUVEC) are grown on gelatin coated glass slides until confluent. The HUVEC's are then stimulated with thrombin or TNF-alpha and washed with PBS with Ca^+2 and Mg^+2. Following activation, the endothelial cells are treated with various concentrations of PPS for thirty minutes at 37° C. The endothelial cells are then washed in PBS with Ca^+2 and Mg^+2, mounted onto the variable height flow chamber where the final testing unit is assembled. […] Adhesion is quantitated by counting the adherent ssRBCs in a field in 7 different locations along the slide in the direction of the flow. The height of the chamber at each of these 7 locations is measured so that the shear stress can be calculated; note that the typical range seen is between 0.3 to 2.7 dynes/cm^2. […]

A further data set deals with transplanted livers. The following applies: livers pretreated with PPS; cited from earlier work.
Another data set has as its system LNCaP. Particulars: dependent on anchorage; cited from earlier work.
The subject of the next data set is DU145. The following applies: DU145, dependent on anchorage; cited from earlier work.
A further data set has as its system PC-3. Particulars: PC-3, not dependent on anchorage; cited from earlier work.
For the next data set, the system named is tumor cell adhesion. Particulars: direct measurements, Schamhart; cited from earlier work.
For data set [3] the following is noted: Wardle 1992; cited from earlier work.

As for heparin sulfate, the “sickle cell adhesion to HUVEC cells” value in the data set with HUVEC cells is recorded as “did not”.
Consider heparin, for which the “in vitro flow adhesion of sickle cells to immobilized P-selectin” value at immobilized P-selectin is on record as “inhibited”. For the same substance, in the data set on HUVEC cells, the “sickle cell adhesion to HUVEC cells” value is given as “inhibited”. The “sickle erythrocyte adhesion to human endothelial cells in vitro” value with human endothelial cells is “inhibited”. Besides, the pain reduction entry in data set [1] is “improvement in pain reduction”.
For the substance Pentosan polysulfate [PPS], in the data set with Human SCD patients, the “microvascular flow (venular diameter and red-cell velocity by CAIM)” value is recorded as “significant improvement in microvascular flow”. The “percentage of adherent cells” value in data set [2] is reported as “reduction”. Also, the “leukocytes adhering to the vascular wall” value in the data set on transplanted livers is reported as “significantly fewer”. For the same substance, the reperfusion edema entry in the data set on transplanted livers is given as “no reperfusion edema”. The “growth and migration of tumor cell line” value was “inhibited” in the data set with LNCaP, “inhibited” in the data set on DU145 and “no effect” with PC-3. For the same substance, in the data set on tumor cell adhesion, the tumor cell adhesion entry is reported as “inhibited”. The “anticoagulant potency relative to heparin” value in data set [3] is listed as “about one-fifteenth”.
In the case of chondroitin sulfate, the “sickle cell adhesion to HUVEC cells” value in the data set with HUVEC cells is “inhibited”.
dextran sulfate: in the data set on HUVEC cells, the “sickle cell adhesion to HUVEC cells” value is on record as “inhibited”.
With low molecular weight heparin, on immobilized P-selectin, the “in vitro flow adhesion of sickle cells to immobilized P-selectin” value is recorded as “not low molecular weight heparin proved to be effective”.

The values above are taken from patent publication US20080214480A1, “Method for Treating Sickle Cell Disease and Sickle Cell Disease Sequalae” (TRF Pharma, Inc., priority 2005, published 2008).
